Laboratory results from ChEMBL document CHEMBL3608252, “Dietziamides, novel tetramic acid dimers from Dietzia timorensis MZ-3 with antioxidative activity” (Bioorg Med Chem Lett, 2015).
Activity calls are given as the source filed them. The rule behind the calls is not given here.

Tests used:
[1] = Antioxidant activity assessed as DPPH redical scavenging activity incubated for 2 hrs in dark condition; type: physicochemical
P388 = assay: Cytotoxicity against mouse P388 cells at 0.78 to 100 uM after 4 days by MTT assay; type: functional, cell-based
Candida albicans = assay: Antimicrobial activity against Candida albicans assessed as growth inhibition at 1.25 to 10 ug/disk incubated for 1 to 2 days by disk diffusion assay; type: functional, organism-based
Bacillus subtilis = assay: Antimicrobial activity against Bacillus subtilis assessed as growth inhibition at 1.25 to 10 ug/disk incubated for 1 to 2 days by disk diffusion assay; type: functional, organism-based
Saccharomyces cerevisiae = assay: Antimicrobial activity against Saccharomyces cerevisiae assessed as growth inhibition at 1.25 to 10 ug/disk incubated for 1 to 2 days by disk diffusion assay; type: functional, organism-based

| IC50 [1] [µM] | SMILES | Activity (P388) | growth inhibition (GI) (Candida albicans) | growth inhibition (GI) (Bacillus subtilis) | growth inhibition (GI) (Saccharomyces cerevisiae) |
| --- | --- | --- | --- | --- | --- |
| 13 | O=C1O[C@H]([C@@H](O)CO)C(O)=C1O [ASCORBIC ACID] |  |  |  |  |
| 37 | C/C=C1\NC(=O)C(C(C2=C(O)/C(=C/C)NC2=O)[C@H](O)CO)=C1O (stereo partly specified) | inactive | inactive | inactive | inactive |
| 34 | C/C=C1\NC(=O)C(CC2=C(O)/C(=C/C)NC2=O)=C1O | inactive | inactive | inactive | inactive |
